In a melting point compilation (Tetko et al.; mined from patent text by program, amines drawn as free bases though some values may be those of a salt):

melting point [°C] | SMILES
89 to 92 | Cc1ccc(S(=O)(=O)OCC2Cc3c(C(F)(F)F)ccc(Cl)c3O2)cc1 (stereo not drawn)
185 to 186 | CN(C)CCc1c(-c2ccc3ccccc3c2)[nH]c2ccccc12
118 to 120 | CCc1cc(-c2nc3ccccc3s2)ccc1N
86 to 87 | COC(=O)C(=O)c1ccc(OCCCC(=O)c2ccc3ccccc3c2)cc1
74 to 76 | COc1cccc2c1CCN(C(=O)C(F)(F)F)CC2
220 to 223 | CC1(C)CCC(C)(C)c2cc(C#Cc3ccc(C(N)=O)cc3)ccc21
134 to 135 | COc1ccc(N2CCN(c3ccc(N)cn3)CC2)cc1
160 to 161 | COc1ccc(C(=O)Nc2ccccc2)cc1Nc1cccc(C)c1
146 to 147 | CC(=C(c1ccc(F)cc1)c1ccc(F)cc1)c1nnnn1C
228 to 229 | O=c1c2cccnc2n(-c2cccc([N+](=O)[O-])c2)c(=O)n1CC(F)(F)F
152 | COc1ccc2c(=O)c(-c3ccccc3)c(SCc3cccnc3)oc2c1
160 to 161 | CC(C)OC(=O)c1ccc(Nc2cccc(N3CCCCC3)c2)c([N+](=O)[O-])c1
156 to 158 | COc1cc(C(C)=O)ccc1OCCCCN1CCN(c2n[nH]c3cc(F)ccc23)CC1
210 to 213 | CS(=O)(=O)c1ccc(C2=C(I)C(=O)C3(CCOCC3)O2)cc1
262 to 264 | COc1ccc(-c2ccc3[nH]c(=O)ccc3c2)cc1
135 to 140 | COc1ccccc1N1CCN(CCCNC(=O)c2cccc3c(=O)cc(-c4ccccc4)[nH]c23)CC1
158 to 161 | CSc1ccc(-n2c(-c3ccccn3)nc(SC)c(C#N)c2=O)cc1
220 to 221 | CCOc1ccc2c(S(=O)(=O)c3ccc(O)cc3)c(C(C)C)cn2c1
55 to 59 | CC(C)(C)OC(=O)N1CCCN(c2ncnc3ccccc23)CC1
148 to 149 | c1ccc(CN2CCN(c3onc4c3CCc3ccccc3-4)CC2)cc1
154 to 157 | C=C(c1cccnc1)c1c(CC(=O)OC)[nH]c2ccccc12

melting point [°C] | SMILES
191 | CCc1noc(-c2ccc(C)cc2)c1-c1ccc(S(N)(=O)=O)cc1
108 to 109 | O=C(Oc1ccc([N+](=O)[O-])cc1)OC1CCN(C(=O)Oc2ccc(Oc3ccccc3)cc2)CC1
50 | COc1cccc(CCNC(=O)Cc2cccs2)c1
103 to 104 | Cc1ccc(CSc2nc3cscc3n2C(=O)OCc2ccccc2)nc1
115 to 119 | O[C@@H]1CN(CCc2ccccc2)CC[C@H]1c1ccccc1 (relative stereo)
206 to 207 | CCOCc1nc2c(N)nc3cc(OCc4ccccc4OC)ccc3c2n1CC(C)C
188 | N#Cc1ccc(NC2CCN(Cc3cc(F)cc(F)c3)CC2)nn1
101 | Nc1ccc(Oc2ccc(C3CCCCC3)cc2)c(N)c1
66 to 67 | COC(=O)C(C)(C)OCc1nn(Cc2ccccc2)c2ccccc12
183 | CSCc1c(C(=O)NN2CCCCC2)nn(-c2ccc(Cl)cc2Cl)c1-c1ccc(Cl)cc1
167 to 168 | CCOC(=O)c1ccc(-c2ccc(-c3ccc(Cl)cc3)s2)cc1
197 to 199 | COc1ccc(C(=O)Nc2ccccc2)cc1NS(=O)(=O)c1cccc(Cl)c1
213 to 215 | Nc1nc2ccc(NC(=O)c3ccccc3)cc2s1
122 to 124 | O[C@@H](c1n[nH]cc1-c1ccccc1)[C@H](CCN1CCC(O)(c2ccccc2)CC1)c1ccc(Cl)c(Cl)c1 (racemic)
157 to 159 | CNc1nc(-c2cccc(Oc3ccccc3)c2)c2cc(OC)c(OC)cc2n1
110 to 112 | O=C(c1ccc(Br)cc1)N1CC(=O)N(CCc2ccccc2)C(=O)C1
227 to 228 | O=C(O)C1CCc2c(-c3ccc(Cl)cc3)noc2C1 (stereo not drawn)
160 to 161 | COc1ccc(/C(=N\O)c2cccc(NS(=O)(=O)N(C)C)c2)cc1
150 to 153 | CC1CCc2c(-c3ccccc3)nc(=O)n(C(C)C)c2C1 (stereo not drawn)
262 to 264 | CN1Cc2ccc(COc3cccc4c3CN(C3CCC(=O)NC3=O)C4=O)cc2C1 (stereo not drawn)
189 to 191 | O=C(Oc1ccccc1)N1CCN2C(=O)OC(c3ccccc3)(c3ccccc3)C2C1 (stereo not drawn)

Continued, compound first:

SMILES | melting point [°C]
CNc1nsnc1-c1c(Cl)cccc1Cl | 145 to 146
Cc1n[nH]c(C)c1Oc1cc(Cl)cc(C#N)c1 | 136 to 140
BrCC(Br)c1ccc(-c2ccccc2)cc1 (stereo not drawn) | 79 to 81
COc1cccc2c1C13CCN(C)C(C2)C1CCC(=O)C3 (single isomer, unassigned; (-)) | 145 to 147
CCCCSc1cc(N)c([N+](=O)[O-])cc1N | 129
CCOC(=O)C1=C(N)NC(N)=C(C(=O)OCC)C1c1ccccc1 | 139
CC(C)c1ccc(S(=O)(=O)Nc2ccc(C(F)(F)F)cc2I)cc1 | 101
CSC(SC)=C(Cl)c1cccc(C(=O)c2ccccc2)c1 | 94 to 96
CC1(C)CC(N=[N+]=[N-])c2cc(C#N)ccc2O1 (stereo not drawn) | 63 to 64
COC(=O)c1ccc(SC)cn1 | 71 to 73
CN1C2CC(OC(=O)Cc3ccccc3)CC1C(O)C2O (stereo not drawn) | 120 to 122
O=[N+]([O-])c1cc2nc(O)c(O)nc2cc1C(F)(F)F | > 300
Cc1cc(C)cc(CC(C)(C)NCC(O)c2cc(OCc3ccccc3)cc3c2OCC(=O)N3)c1 (stereo not drawn) | 220 to 222
NS(=O)(=O)c1ccc(C2=C(c3ccc(-c4cscn4)cc3)C(=O)OC2)cc1F | 194
CC(=O)SCCc1cn2cccnc2n1 | 122 to 124
O=C1C=C(c2ccc(O)cc2)S(=O)(=O)c2ccccc21 | 222 to 224
O=C1CCC(O)(c2nc3ccccc3s2)CC1 | 134
CCC(=O)CNC(=O)CSc1cnc(NC(C)=O)s1 | 195 to 196
COc1nc(Cc2ccccc2[N+](=O)[O-])nc(OC)n1 | 91.6 to 92.3
CC(C)(CCC(=O)N[C@H](Cc1ccccc1)C(=O)NCCCCNC(=N)N)C(=O)O | 169
CC(=O)c1cccc2oc(C(=O)Nc3ccc(-c4ccc(S(=O)(=O)NC(C(=O)O)C(C)C)cc4)cc3)c(C)c12 (stereo not drawn) | 228 to 235

SMILES | melting point [°C]
CC(=O)N(C(C)=O)c1c(C#N)cnn1-c1ccc(Cl)c(Cl)c1Cl | 163 to 165
O=C(N[C@@H](CO)C(=O)N1CC(C(=O)O)C1)OCc1ccccc1 | 138 to 143
CC(S)Cn1c(=O)[nH]c2ccccc2c1=O (stereo not drawn) | 206 to 208
CCCCN(CCCC)Cc1cc(C(C)(C)C)cc(C(C)(C)C)c1O | 33 to 35
NC(=O)Nc1ccc2c(=O)n(CCCCN3CC=C(c4ccccc4)CC3)c(=O)[nH]c2c1 | 260
Cc1nc(NC(=O)c2cnn3c(C(F)(F)F)cc(-c4ccc(C(F)(F)F)cc4)nc23)sc1S(=O)(=O)N(CCO)CCO | 214
CC(=O)NCCNC(=O)Nc1ccc(-c2c[nH]c(=O)cn2)cc1 | 238 to 244
S=C1CNC(=S)c2cc(Cl)ccc2N1 | 273 to 274
CCOC(=O)CCCn1c(Nc2c(C)noc2C)nc2c(Cl)ccc(C(CC)CC)c21 | 135 to 138
COc1cc(Cl)c2c(c1)C=C(C(=O)O)C(C(F)(F)F)O2 (stereo not drawn) | 204 to 207
COC(=O)c1ccc(C(=O)c2cc3c(cc2C)OC2(C)C4CCC(C)(C4)C32C)cc1 (stereo not drawn) | 140 to 142
CCCc1c(OCc2ccc(C=CC(=O)O)cc2OC)ccc(C(C)=O)c1O | 144 to 146
COC(=O)CCC(C)C1CCC2C3CC=C4CC(OC(C)=O)CCC4(C)C3CCC12C (stereo not drawn) | 152
CCCCOc1c(CNC(=O)OC(C)(C)C)n(CC(C)C)c(=O)c2ccc(C(=O)O)cc12 | 185 to 186
COc1ccc(C2CNC(=O)S2)cc1OC (stereo not drawn) | 167 to 169
N#CC(Cl)=C(Cl)S(=O)(=O)c1ccccc1 | 72
Cc1nc2cc(Cl)ccc2c(=O)n1C1CCC(=O)NC1=O (stereo not drawn) | 291 to 293
CC(C)(C)OC(=O)N(O)C(=O)CCN | 85 to 87
CC[C@H]1[C@@H](O)CC(=O)N1c1ccc(C#N)c(Cl)c1F | 142 to 144
CCOC(=O)CN1CC2CCC(=O)N2C1=O (stereo not drawn) | 99 to 101
Cc1c(Cc2cccc(C(F)(F)F)c2)sc2c(-c3cc(F)cc(C(=O)NCC(N)=O)c3)cccc12 | 46 to 47

SMILES | melting point [°C]
O=c1[nH]c2ccc3c(c2[nH]1)OC(CO)CC3 (stereo not drawn) | 240
N#Cc1c(F)ccc(OCc2nc3cc(Cl)ccc3s2)c1F | 145 to 147
COC(=O)c1ncccc1NC(=O)C(C)CSC(C)=O (stereo not drawn) | 54 to 56
CCOC(=O)[C@H](Cc1ccc(-c2c(OC)cc(C=O)cc2OC)cc1)NC(=O)c1c(F)cccc1F | 114 to 116
COc1cc(CCl)ccc1OCCCCOc1ccc(CCl)cc1OC | 116 to 118
OCc1c(Cl)cncc1Cl | 87 to 88
CC(=O)c1ccc(NS(C)(=O)=O)c(C(=O)c2ccc(F)cc2F)c1 | 114 to 117
NS(=O)(=O)C1=CC2=C(OCCO)CCS(=O)(=O)C2S1 (stereo not drawn) | 159 to 164
CN(c1cccc2cc(C3=NCC(C)(C#N)S3)[nH]c12)S(=O)(=O)c1cccs1 (stereo not drawn) | 178 to 179
CCCCCCCCCCSCCCN=C=O | 89 to 92
COC(=O)c1c(C(F)F)nc(C(F)(F)F)c(C(=O)SC)c1NC1CC1 | 108 to 109
C[C@H](CSC(=O)C(C)(C)C)C(=O)N(CC(=O)O)C1CCCC1 | 155 to 156
O=C(O)CCCCCc1c[nH]c2ccccc12 | 124 to 126
CCCCc1cc(C(=O)O)ccc1C(N)C(=O)O (stereo not drawn) | 227
CNC(Cc1ccccc1NC(=O)C(C)(C)C)c1ccccc1C (stereo not drawn) | 77 to 79
C#Cc1ccnc(-c2ccc(-c3ccccc3C#C)c([N+](=O)[O-])c2)c1 | 144 to 146
CCOC(=O)c1cnc2n(c1=O)CCCC2CC(=O)O (stereo not drawn) | 156 to 157
O=CNCCNC1=NS(=O)(=O)c2cc(Cl)ccc2N1 | 245 to 247
Nc1cc(-c2ccccc2)nn1-c1c(Cl)cc(C(F)(F)F)cc1Cl | 142
